Measurements: patent US20060069132A1, “Azolecarboxamide herbicides” (priority 2004, published 2006)

Experiments:
purple nutsedge = experiment: Test E pre-/postemergence herbicide test; type: in vivo, Cyperus rotundus
Text: (§1) Seeds of plant species selected from bipinnate beggarticks (Bidens bipinnata L.), hairy beggarticks (Bidens radiata Thuill.), bermudagrass (Cynodon dactylon (L.) Pers.), Surinam grass (Urochloa decumbens (Staph) R. D. Webster, previously named Brachiaria decumbens Stapf), large crabgrass (Digitaria sanguinalis (L.) Scop.), green foxtail (Setaria viridis (L.) P. Beauv.), goosegrass (Eleusine indica (L.) Gaertn.), johnsongrass (Sorghum halepense (L.) Pers.), kochia (Kochia scoparia (L.) Schrad.), pitted morningglory (Ipomoea lacunosa L.), purple nutsedge (Cyperus rotundus L.), common ragweed (Ambrosia elatior L.), mustard (Brassica nigra (L.) W. D. J. Koch), guineagrass (Panicum maximum Jacq.), dallisgrass (Paspalum dilatatum Poir.), barnyardgrass (Echinochloa crus-galli (L). P. Beauv.), southern sandbur (Cenchrus echinatus L.), common sowthistle (Sonchus oleraceous L.), prickly sida (Sida spinosa L.), Italian ryegrass (Lolium multiflorum Lam.), common purslane (Portulaca oleracea L.), broadleaf signalgrass (Brachiaria platyphylla (Griseb.) Nash), common groundsel (Senecio vulgaris L.), common chickweed (Stellaria media (L.) Vill/Cyr.), tropical spiderwort (Commelina benghalensis L.), annual bluegrass (Poa annua L.), downy bromegrass (Bromus tectorum L.), itchgrass (Rottboellia cochinchinensis (L.) L.f.), quackgrass (Elytrigia repens (L.) Nevski), Canada horseweed (Erigeron Canadensis L.), field bindweed (Convolvulus arvensis L.), spotted spurge (Euphorbia maculata L.), common mallow (Malva sylvestris (=s silvestris) L.), and Russian thistle (Salsola kali L. ssp. Ruthenica (Iljin) Soo) were planted and treated preemergence with test chemicals formulated in a non-phytotoxic solvent mixture which included a surfactant.
(§2) At the same time, plants selected from these weed species were treated with postemergence applications of some of the test chemicals formulated in the same manner. Plants ranged in height from 2 to 18 cm (1- to 4-leaf stage) for postemergence treatments. Treated plants and controls were maintained in a greenhouse for 12 to 14 days, after which time all species were compared to controls and visually evaluated. Plant response ratings, summarized in Table E, are based on a scale of 0 to 100 where 0 is no effect and 100 is complete control. A dash (-) response means no test result.

hairy beggarticks = experiment: Test E pre-/postemergence herbicide test; type: in vivo, Bidens radiata; settings: Preemergence
Text: as §1, §2

bipinnate beggarticks = experiment: Test E pre-/postemergence herbicide test; type: in vivo, Bidens bipinnata; settings: Preemergence
Text: as §1, §2

ducksalad = experiment: Test D flooded paddy test; type: in vivo, Heteranthera limosa; settings: 21 days, scale 0 to 100
Text: (§3) Three plastic pots (ca. 16-cm diameter) per rate were partially filled with sterilized Tama silt loam soil comprising a 35:50:15 ratio of sand, silt and clay and 2.6% organic matter. Separate plantings for each of the three pots were as follows. Seeds from the U.S. of ducksalad (Heteranthera limosa (Sw.) Willd.), smallflower umbrella sedge (Cyperus difformis L.) and purple redstem (Ammannia coccinea Rottb.), were planted into one 16-cm pot for each rate. Seeds from the U.S. of rice flatsedge (Cyperus iria L.), bearded sprangletop (Leptochloa fascicularis (Lam.) Gray), one stand of 9 or 10 water seeded rice seedlings (Oryza sativa L. cv. ‘Japonica—M202’), and one stand of 6 transplanted rice seedlings (Oryza sativa L. cv. ‘Japonica—M202’) were planted into one 16-cm pot for each rate. Seeds from the U.S. of barnyardgrass (Echinochloa crus-galli (L.) Beauv.), late watergrass (Echinochloa oryzicola Vasinger), early watergrass (Echinochloa oryzoides (Ard.) Fritsch) and junglerice (Echinochloa colona (L.) Link) were planted into one 16-cm pot for each rate. Plantings were sequential so that crop and weed species were at the 2.0 to 2.5-leaf stage at time of treatment.
(§4) Potted plants were grown in a greenhouse with day/night temperature settings of 29.5/26.7° C., and supplemental balanced lighting was provided to maintain a 16-hour photoperiod. Test pots were maintained in the greenhouse until test completion.
(§5) At time of treatment, test pots were flooded to 3 cm above the soil surface, treated by application of test compounds directly to the paddy water, and then maintained at that water depth for the duration of the test. Effects of treatments on rice and weeds were visually evaluated by comparison to untreated controls after 21 days. Plant response ratings are reported on a 0 to 100 scale; where 0 is no effect and 100 is complete control. A dash (-) response means no test result.

purple redstem = experiment: Test D flooded paddy test; type: in vivo, Ammannia coccinea; settings: 21 days, scale 0 to 100
Text: as §3, §4, §5

junglerice = experiment: Test D flooded paddy test; type: in vivo, Echinochloa colona; settings: 21 days, scale 0 to 100
Text: as §3, §4, §5

rice flatsedge = experiment: Test D flooded paddy test; type: in vivo, Cyperus iria; settings: 21 days, scale 0 to 100
Text: as §3, §4, §5

[1] = test system: smallflower umbrella sedge; experiment: Test D flooded paddy test; type: in vivo, Cyperus difformis; settings: 21 days, scale 0 to 100
Text: as §3, §4, §5

bearded sprangletop = experiment: Test D flooded paddy test; type: in vivo, Leptochloa fascicularis; settings: 21 days, scale 0 to 100
Text: as §3, §4, §5

early watergrass = experiment: Test D flooded paddy test; type: in vivo, Echinochloa oryzoides; settings: 21 days, scale 0 to 100
Text: as §3, §4, §5

barnyardgrass = experiment: Test D flooded paddy test; type: in vivo, Echinochloa crus-galli; settings: 21 days, scale 0 to 100
Text: as §3, §4, §5

[2] = Postemergence, 250 g ai/ha, scale 0 to 100
[3] = Preemergence, 62 g ai/ha, scale 0 to 100
[4] = Preemergence, 125 g ai/ha, scale 0 to 100
[5] = Preemergence, 250 g ai/ha, scale 0 (no effect) to 100 (complete control)
[6] = Preemergence, 500 g ai/ha, scale 0 (no effect) to 100 (complete control)
[7] = postemergence, 125 g ai/ha, scale 0 to 100
[8] = postemergence, 62 g ai/ha, scale 0 to 100
[9] = 250 g ai/ha, scale 0 (no effect) to 100 (complete control)

Structure (SMILES): CCc1nn(C(C)(C)C)cc1C(=O)Nc1cc(C(=O)N(C)C)ccc1F [Compound 222, N-[5-[(dimethylamino)carbonyl]-2-fluorophenyl]-1-(1,1-dimethylethyl)-3-ethyl-1H-pyrazole-4-carboxamide]
- Plant response rating, Nutsedge, Purple (purple nutsedge; [2]): 30
- Plant response rating, Nutsedge, Purple (purple nutsedge; [3]): 10
- Plant response rating, Nutsedge, Purple (purple nutsedge; [4]): 40
- Plant response rating, Nutsedge, Purple (purple nutsedge; [5]): 70
- Plant response rating, Nutsedge, Purple (purple nutsedge; [6]): 80
- Plant response rating, Nutsedge, Purple (purple nutsedge; [7]): 10
- Plant response rating, Nutsedge, Purple (purple nutsedge; [8]): 10

Structure (SMILES): CCN1N=C(C(C)(C)C)CC1C(=O)Nc1cc(C(=O)N(C)C)ccc1F (centres unmarked) [Compound 268, N-[5-[(dimethylamino)carbonyl]-2-fluorophenyl]-3-(1,1-dimethylethyl)-1-ethyl-4,5-dihydro-1H-pyrazole-5-carboxamide]
- Plant response rating, Nutsedge, Purple (purple nutsedge; [3]): 50
- Plant response rating, Nutsedge, Purple (purple nutsedge; [4]): 70
- Plant response rating, Nutsedge, Purple (purple nutsedge; [5]): 85
- Plant response rating, Nutsedge, Purple (purple nutsedge; [6]): 85
- Plant response rating, Beggarticks, Hairy (hairy beggarticks; 62 g ai/ha, scale 0 to 100): 40
- Plant response rating, Beggarticks, Hairy (hairy beggarticks; 125 g ai/ha, scale 0 to 100): 95
- Plant response rating, Beggarticks, Hairy (hairy beggarticks; [9]): 100
- Plant response rating, Beggarticks, Hairy (hairy beggarticks; 500 g ai/ha, scale 0 (no effect) to 100 (complete control)): 100

Structure (SMILES): CCc1nn(C(C)C)nc1C(=O)Nc1cccc(C(=O)N(C)CC)c1 [Compound 386]
- Plant response rating, Beggarticks, Bip. (bipinnate beggarticks; [9]): 40

Structure (SMILES): CCNC(=O)c1ccc(F)c(NC(=O)c2cn(C(C)(C)C)nc2CC)c1 [Compound 193]
- Plant response rating, Nutsedge, Purple (purple nutsedge; Postemergence, 500 g ai/ha, scale 0 to 100): 70
- Plant response rating, Nutsedge, Purple (purple nutsedge; [2]): 40
- Plant response rating, Nutsedge, Purple (purple nutsedge; [3]): 0
- Plant response rating, Nutsedge, Purple (purple nutsedge; [4]): 30
- Plant response rating, Nutsedge, Purple (purple nutsedge; [5]): 50
- Plant response rating, Nutsedge, Purple (purple nutsedge; [6]): 80
- Plant response rating, Nutsedge, Purple (purple nutsedge; [7]): 20
- Plant response rating, Nutsedge, Purple (purple nutsedge; [8]): 0

Structure (SMILES): CCc1nn(C(C)C)nc1C(=O)Nc1cccc(C(=O)N2CCCCC2)c1 [Compound 385]
- Plant response rating, Beggarticks, Bip. (bipinnate beggarticks; 62 g ai/ha, scale 0 to 100): 0
- Plant response rating, Beggarticks, Bip. (bipinnate beggarticks; 125 g ai/ha, scale 0 to 100): 30
- Plant response rating, Beggarticks, Bip. (bipinnate beggarticks; [9]): 30

Structure (SMILES): CCNC(=O)c1cccc(NC(=O)c2cc(C(C)(C)C)nn2CC)n1 [Compound 144]
- Plant response rating, Nutsedge, Purple (purple nutsedge; [3]): 0
- Plant response rating, Nutsedge, Purple (purple nutsedge; Preemergence, 125 g ai/ha, scale 0 (no effect) to 100 (complete control)): 30
- Plant response rating, Nutsedge, Purple (purple nutsedge; [5]): 30
- Plant response rating, Nutsedge, Purple (purple nutsedge; [6]): 50

Structure (SMILES): CCn1nc(C(C)(C)C)cc1C(=O)Nc1cc(C(=O)N(C)C)ccn1 [Compound 156, 2-[[[3-(1,1-dimethylethyl)-1-ethyl-1H-pyrazol-5-yl]carbonyl]amino]-N,N-dimethyl-4-pyridinecarboxamide]
- Plant response rating, Nutsedge, Purple (purple nutsedge; [2]): 90
- Plant response rating, Nutsedge, Purple (purple nutsedge; [6]): 95
- Plant response rating, Nutsedge, Purple (purple nutsedge; [7]): 75

Structure (SMILES): CCn1nc(C(C)(C)C)cc1C(=O)Nc1cc(C(=O)NCC2CC2)ccn1 [Compound 155]
- Plant response rating, Ducksalad (ducksalad; 32 g ai/ha): 0
- Plant response rating, Ducksalad (ducksalad; 64 g ai/ha): 0
- Plant response rating, Ducksalad (ducksalad; 125 g ai/ha): 0
- Plant response rating, Ducksalad (ducksalad; 250 g ai/ha): 60
- Plant response rating, Ducksalad (ducksalad; 500 g ai/ha): 60
- Plant response rating, Redstem (purple redstem; 32 g ai/ha): 0
- Plant response rating, Redstem (purple redstem; 64 g ai/ha): 0
- Plant response rating, Redstem (purple redstem; 125 g ai/ha): 0
- Plant response rating, Redstem (purple redstem; 250 g ai/ha): 95
- Plant response rating, Redstem (purple redstem; 500 g ai/ha): 95
- Plant response rating, Junglerice (junglerice; 32 g ai/ha): 20
- Plant response rating, Junglerice (junglerice; 64 g ai/ha): 40
- Plant response rating, Junglerice (junglerice; 125 g ai/ha): 40
- Plant response rating, Junglerice (junglerice; 250 g ai/ha): 40
- Plant response rating, Junglerice (junglerice; 500 g ai/ha): 65
- Plant response rating, Flatsedge, Rice (rice flatsedge; 32 g ai/ha): 0
- Plant response rating, Flatsedge, Rice (rice flatsedge; 64 g ai/ha): 0
- Plant response rating, Flatsedge, Rice (rice flatsedge; 125 g ai/ha): 30
- Plant response rating, Flatsedge, Rice (rice flatsedge; 250 g ai/ha): 60
- Plant response rating, Flatsedge, Rice (rice flatsedge; 500 g ai/ha): 70
- Plant response rating, Sedge, Umbrella ([1]; 32 g ai/ha): 30
- Plant response rating, Sedge, Umbrella ([1]; 64 g ai/ha): 65
- Plant response rating, Sedge, Umbrella ([1]; 125 g ai/ha): 75
- Plant response rating, Sedge, Umbrella ([1]; 250 g ai/ha): 75
- Plant response rating, Sedge, Umbrella ([1]; 500 g ai/ha): 80
- Plant response rating, Sprangletop, Bearded (bearded sprangletop; 32 g ai/ha): 30
- Plant response rating, Sprangletop, Bearded (bearded sprangletop; 64 g ai/ha): 30
- Plant response rating, Sprangletop, Bearded (bearded sprangletop; 125 g ai/ha): 30
- Plant response rating, Sprangletop, Bearded (bearded sprangletop; 250 g ai/ha): 40
- Plant response rating, Sprangletop, Bearded (bearded sprangletop; 500 g ai/ha): 75
- Plant response rating, Watergrass, Early (early watergrass; 32 g ai/ha): 0
- Plant response rating, Watergrass, Early (early watergrass; 64 g ai/ha): 0
- Plant response rating, Watergrass, Early (early watergrass; 125 g ai/ha): 25
- Plant response rating, Watergrass, Early (early watergrass; 250 g ai/ha): 35
- Plant response rating, Watergrass, Early (early watergrass; 500 g ai/ha): 70
- Plant response rating, Barnyardgrass (barnyardgrass; 32 g ai/ha): 0
- Plant response rating, Barnyardgrass (barnyardgrass; 64 g ai/ha): 0
- Plant response rating, Barnyardgrass (barnyardgrass; 125 g ai/ha): 20
- Plant response rating, Barnyardgrass (barnyardgrass; 250 g ai/ha): 35
- Plant response rating, Barnyardgrass (barnyardgrass; 500 g ai/ha): 80
